Experimental data published in ChEMBL document CHEMBL5230082, “Recent advances in steroid amino acid conjugates: Old scaffolds with new dimensions” (Eur J Med Chem, 2020).

Key:
SH-SY5Y = test: Neuroprotective activity against H2O2-induced human SH-SY5Y cell injury by MTT assay relative to control; type: functional
[1] = biological target: Human immunodeficiency virus type 1 protease (Human immunodeficiency virus 1, UniProt Q72874); test: Inhibition of HIV-1 protease assessed as inhibition
Rattus norvegicus [2] = test: Antiarrhythmic activity in pentobarbital anesthetized rat model assessed as death rate at 10 mg/kg, iv relative to control; type: functional
Rattus norvegicus [3] = test: Antiarrhythmic activity in pentobarbital anesthetized rat model assessed as ventricular fibrillation at 10 mg/kg, iv relative to control; type: functional
Rattus norvegicus [4] = test: Antiarrhythmic activity in pentobarbital anesthetized rat model assessed as number of ventricular ectopics at 10 mg/kg, iv; type: functional
[5] = Cytotoxicity against human A2780cis cells assessed as reduction in cell viability incubated for 72 hrs; type: functional, cell-based
HeLa = test: Cytotoxicity against human HeLa cells assessed as reduction in cell viability; type: functional, cell-based
[6] = biological target: Ephrin type-A receptor 2/Ephrin-A1 (Homo sapiens, UniProt P20827+P29317); test: Inhibition of EPhA2-ephrin-A1 (unknown origin) protein-protein interaction; type: protein assay
Cladosporium cucumerinum [7] = test: Antifungal activity against Cladosporium cucumerinum assessed as zone of inhibition at 30 ug per disc; type: functional; conditions: read-out: DIZ
Candida albicans = test: Antifungal activity against Candida albicans assessed as zone of inhibition at 100 ug per disc; type: functional; conditions: read-out: DIZ
Cladosporium cucumerinum [8] = test: Antifungal activity against Cladosporium cucumerinum assessed as zone of inhibition at 60 ug per disc; type: functional; conditions: read-out: DIZ

Chain of Ephrin type-A receptor 2/Ephrin-A1 (P29317 whole entry): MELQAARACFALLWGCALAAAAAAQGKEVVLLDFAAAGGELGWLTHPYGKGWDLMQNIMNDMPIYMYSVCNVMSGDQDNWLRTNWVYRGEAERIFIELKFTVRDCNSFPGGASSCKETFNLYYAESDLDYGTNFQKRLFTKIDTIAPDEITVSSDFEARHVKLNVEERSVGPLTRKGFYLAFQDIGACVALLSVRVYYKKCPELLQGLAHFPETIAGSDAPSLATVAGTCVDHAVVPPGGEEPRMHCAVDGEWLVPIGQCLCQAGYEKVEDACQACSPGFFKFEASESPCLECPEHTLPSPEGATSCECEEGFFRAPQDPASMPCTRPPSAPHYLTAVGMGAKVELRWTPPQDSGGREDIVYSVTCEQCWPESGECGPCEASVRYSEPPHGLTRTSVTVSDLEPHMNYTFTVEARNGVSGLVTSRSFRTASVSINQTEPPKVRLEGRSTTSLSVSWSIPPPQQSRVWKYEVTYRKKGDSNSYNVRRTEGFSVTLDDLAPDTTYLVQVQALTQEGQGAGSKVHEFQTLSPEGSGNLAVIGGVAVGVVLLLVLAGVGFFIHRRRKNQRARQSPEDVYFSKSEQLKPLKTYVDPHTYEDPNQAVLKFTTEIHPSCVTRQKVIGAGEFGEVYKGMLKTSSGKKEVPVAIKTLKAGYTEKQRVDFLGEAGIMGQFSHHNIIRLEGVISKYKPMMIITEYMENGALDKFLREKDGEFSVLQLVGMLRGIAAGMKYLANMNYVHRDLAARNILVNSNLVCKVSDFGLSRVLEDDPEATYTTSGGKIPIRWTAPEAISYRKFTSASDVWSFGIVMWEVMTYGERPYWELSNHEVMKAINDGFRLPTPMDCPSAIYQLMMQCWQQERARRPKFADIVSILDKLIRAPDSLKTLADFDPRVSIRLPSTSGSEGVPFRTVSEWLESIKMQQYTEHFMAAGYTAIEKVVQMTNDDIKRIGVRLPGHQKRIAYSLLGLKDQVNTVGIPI
Chain of Ephrin type-A receptor 2/Ephrin-A1 (P20827 whole entry): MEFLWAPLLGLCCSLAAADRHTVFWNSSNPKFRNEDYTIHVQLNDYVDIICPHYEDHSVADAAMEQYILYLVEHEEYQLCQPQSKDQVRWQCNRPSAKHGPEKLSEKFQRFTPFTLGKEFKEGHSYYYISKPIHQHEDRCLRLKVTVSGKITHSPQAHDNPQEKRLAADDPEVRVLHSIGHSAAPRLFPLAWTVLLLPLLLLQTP

With `COC(=O)[C@H](Cc1ccccc1)NC(=O)[C@@H](C)CC[C@H]1O[C@H]2C[C@H]3[C@@H]4CC[C@@H]5C[C@@H](OC)CC[C@]5(C)[C@H]4CC[C@]3(C)[C@H]2[C@@H]1C` the Activity (SH-SY5Y) was 102.2%.

In the case of `C[C@H](CCC(=O)N[C@H](CC(=O)OCc1ccccc1)C(=O)O)[C@H]1CC[C@H]2[C@@H]3[C@H](O)C[C@@H]4C[C@H](O)CC[C@]4(C)[C@H]3C[C@H](O)[C@]12C`, the IC50 [1] is reported as 125 µM.

Compound `C[C@]12C[C@H](O)[C@@H](N)C[C@@H]1CC[C@@H]1[C@@H]2CC[C@]2(C)C(=O)CC[C@@H]12` [AMAFOLONE] has an Activity (Rattus norvegicus [2]) of 0%, an Activity (Rattus norvegicus [3]) of 13% and an Activity (Rattus norvegicus [4]) of 213.

With `CC(C)CCC[C@@H](C)[C@H]1CC[C@H]2[C@@H]3CC=C4C[C@@H](OC(=O)N[C@H](Cc5ccc(O)cc5)C(=O)O)CC[C@]4(C)[C@H]3CC[C@]12C` the IC50 [5] was 50 µM.

For `CC(C)CCC[C@@H](C)[C@H]1CC[C@H]2[C@@H]3CC=C4C[C@@H](OC(=O)N[C@H](Cc5ccc(OP(=O)(O)O)cc5)C(=O)O)CC[C@]4(C)[C@H]3CC[C@]12C`, the IC50 (HeLa) was 16 µM.

`C[C@H](CCC(=O)O)[C@H]1CC[C@H]2[C@@H]3CC[C@@H]4CCCC[C@]4(C)[C@H]3CC[C@]12C` [URSOCHOLANIC ACID] gave a Ki [6] of 5.1 µM.

With `C=C(C(=O)N[C@H](C(=O)O)c1ccc(OC)cc1)C(C)CC[C@@H](C)[C@H]1CCC2=C3[C@H](OC)C[C@H]4[C@H](C)[C@@H](OS(=O)(=O)O)CC[C@]4(C)[C@H]3CC[C@@]21C` (stereo partly specified) the zone of inhibition at 30 µg/disc (Cladosporium cucumerinum [7]) was 10.1 mm, the zone of inhibition at 100 µg/disc (Candida albicans) was 9.8 mm and the zone of inhibition at 60 µg/disc (Cladosporium cucumerinum [8]) was 8 mm.
